As usually defined, the inhibition is the change of the read-out against control, counted positive when it falls.

One assay has as its target T1, recombinant human MALT1 (Homo sapiens, UniProt Q9UDY8).
T1 construct: to form a human MALT1 (340-789aa) dimer; His tag (from pET28a, N-terminal) (N); yeast GCN4 leucine zipper (251-281aa), fusion partner for dimerisation (N); translates to GSGSGS), between GCN4 zipper and MALT1 (N); His tag (C-terminal) (C); made in house; host or cells: E. coli BL21 (DE3)
Put plainly: Measurement of MALT1 enzyme inhibitory activity. The format is biochemical. The conditions noted are these: read-out: MALT1 enzyme inhibition rate (%) at 3 μM compound. The protocol:
On the human MALT1 gene, PCR was carried out using GC-030-[…] (pENTR221/MALT1, GeneCopoeia) as a template with primers having BamH I restriction enzyme at the N-terminal and Not I restriction enzyme at the C-terminal to form a human MALT1 (340-789aa) dimer. […] Both of the obtained fragments were treated with the restriction enzymes, and inserted between Nde I and Not I of a pET28a (Novagen) vector to yield a recombinant human MALT1 protein expression vector pET28a/His-LZ-hMALT1v1 (340-789)-His. The recombinant human MALT1 protein was prepared by transforming the expression plasmid prepared as above with ECOS Competent E. coli BL21 (DE3) (Nippon Gene Co., Ltd.). Escherichia coli obtained by transformation was inoculated into 300 mL of LB medium (1% tryptone, 0.5% yeast extract, 0.5% sodium chloride, 0.01% ampicillin) and cultured at 30° C. for 16 hours. […] Furthermore, culturing was carried out for 16 hours to induce expression of human MALT1 protein. After completion of the culture, the culture solution was centrifuged at 5,000 rpm for 10 minutes. […] This crushed liquid was centrifuged (15,300×G, 30 min, TOMY MX-301), and the obtained supernatant was passed through and adsorbed to a Ni-NTA Superflow (QIAGEN) column previously equilibrated with 50 mM Tris-HCl pH 8.0, 300 mM NaCl, 5 mM DTT and 10% glycerol, followed by elution in a buffer containing 50 mM Tris-HCl pH 8.0, 300 mM NaCl, 5 mM DTT, 10% glycerol and 250 mM imidazole. […] The prepared protein was stored at -30° C., and the protein concentration was measured with a BCA Protein Assay Kit (PIERCE) using BSA as a standard. […] Subsequently, 2 μL of a purified recombinant human MALT1 enzyme solution was added, followed by incubation for 60 minutes at room temperature. To the mixture were added 2 μL of a substrate solution (75 μM Ac-LRSR-AFC (SM Biochemicals), 20 mM HEPES (Dojin Laboratories), 10 mM KCl (Wako Pure Chemical Industries, Ltd.), 1.5 mM MgCl2 (Sigma-Aldrich), 1 mM EDTA (pH 8.0) (Nippon Gene Co., Ltd.), 0.01% Triton X-100 (Sigma-Aldrich) and 1 mM DTT (Wako Pure Chemical Industries, Ltd.), followed by incubation for 60 minutes at room temperature. The fluorescence values of excitation 400 nm and emission 485 nm immediately after substrate addition and after enzymatic reaction were measured with a plate reader Envision (PerkinElmer), and the fluorescence values increased by enzymatic reaction were used for calculation of the inhibition rate (%).

Another assay has as its system OCI-Ly3 cells. The assay is described as follows: Measurement of growth inhibitory activity using OCI-Ly3 cells. Format: cell-based. The conditions noted are these: Homo sapiens, 144 h, 3 μm compound, 6 days, read-out: Cell growth inhibition rate (%) at 3 μm compound. The protocol:
OCI-Ly3 cells were seeded in a cell culture medium IMDM (Fujifilm Wako Pure Chemical Corporation) containing 20% FCS (fetal calf serum, Thermo Fisher Scientific) and monothioglycerol (Fujifilm Wako Pure Chemical Corporation) so as to be at 1.25×10^3 cells/well on a 96-well plate. Cell Titer-Glo solution (Promega) was added to cells to which the test compound had not been added, followed by stirring at room temperature for 15 minutes. Subsequently, the luminescence value was measured with Envision (PerkinElmer) on the day of seeding. Cells to which the test compound dissolved in dimethyl sulfoxide (Fujifilm Wako Pure Chemical Corporation) had been added were allowed to stand in a CO2 incubator (37° C.) for 6 days. Subsequently, the luminescence value was measured in the same manner. The inhibition rate (%) of the test compound on OCI-Ly3 cell growth was calculated by the following formula. Cell growth inhibition rate (%)=(1−(Luminescent value on day 6 of test compound treatment−Luminescent value before test compound treatment)/(Luminescent value on day 6 without compound addition−Luminescent value before compound treatment))×100

Assay [1] concerns Human diffuse large-cell B-cell lymphoma cells OCI-Ly3. The assay is described as follows: Antitumor effect on OCI-Ly3 cell-bearing cancer model. The format is in vivo. The conditions noted are these: average tumor volume increase ratio; 10 mg/kg orally twice daily for 3 weeks; NOG female mice, OCI-Ly3 subcutaneous. The method, then: Human diffuse large-cell B-cell lymphoma cells OCI-Ly3 (DSMZ, German Collection of Microorganisms and Cell Cultures) were suspended in a Matrigel (BD Biosciences):HBSS (Thermo Fisher Scientific)=1:1 solution, and 1×10^7 cells were transplanted subcutaneously into the abdomen of NOG female mice (CLEA Japan, Inc.). The tumor diameter of the engrafted tumor was measured, and the tumor volume was calculated by the following formula. Tumor volume=major axis×minor axis×minor axis×(½)
Individuals with the engrafted tumor having a tumor volume of about 120 mm^3 were selected, and 6 animals per group were used in the experiment. A suspension of the test compound in 0.5% methylcellulose solution (Fujifilm Wako Pure Chemical Corporation) was orally administered at a dose of 10 mg/kg (10 mL/kg) twice daily for 3 weeks. The tumor volume was measured on the day before the start of administration and every 3 to 4 days over time, and the tumor diameter was finally measured the day after the end of administration for 21 days to calculate the tumor volume. The tumor growth of the test compound-administered group compared with the control-administered group was calculated by the following formula as an average tumor volume increase ratio T/C. T/C=((Tumor volume after the end of administration for the test compound-administered group−Tumor volume of the day before the start of administration for the test compound-administered group)/(Tumor volume after the end of administration for the control-administered group−Tumor volume of the day before the start of administration for the control-administered group))×100

T1 sequence (Q9UDY8 340-789): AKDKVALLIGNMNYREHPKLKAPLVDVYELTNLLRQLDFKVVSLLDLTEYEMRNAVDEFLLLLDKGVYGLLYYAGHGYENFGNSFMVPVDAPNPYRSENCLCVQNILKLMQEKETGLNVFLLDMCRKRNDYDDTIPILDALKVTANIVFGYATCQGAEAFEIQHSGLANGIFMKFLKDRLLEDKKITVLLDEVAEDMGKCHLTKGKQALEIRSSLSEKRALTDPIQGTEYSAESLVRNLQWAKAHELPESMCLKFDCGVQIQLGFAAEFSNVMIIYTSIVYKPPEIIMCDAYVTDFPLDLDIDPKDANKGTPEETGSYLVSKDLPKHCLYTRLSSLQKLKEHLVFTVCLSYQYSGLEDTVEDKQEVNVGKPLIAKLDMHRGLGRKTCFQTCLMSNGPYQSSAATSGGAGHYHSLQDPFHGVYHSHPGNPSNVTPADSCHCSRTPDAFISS
T1 sequence (P03069 251-281 partner limits assumed): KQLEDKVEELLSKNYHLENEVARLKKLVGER

For `CO[C@@H](C)c1c(NC(=O)Nc2cnc(-n3nccn3)c(C(F)(F)F)c2)cnc2ccc(C)nc12` [Example 3, (S)—N-(4-(1-Methoxyethyl)-6-methyl-1,5-naphthyridin-3-yl)-N′-(6-(2H-1,2,3-triazol-2-yl)-5-(trifluoromethyl)pyridin-3-yl)urea], the inhibition at 3 µM turned out to be 101% on recombinant human MALT1 and 99% with OCI-Ly3 cells. For the same compound, the “T/C (%)” value in assay [1] was 38.7%.

On to `CO[C@@H](C)c1c(NC(=O)Nc2cnc(-n3nccn3)c(Cl)c2)cnn2cc(C)nc12` [Example 4, (S)—N-(5-Chloro-6-(2H-1,2,3-triazol-2-yl)pyridin-3-yl)-N′-(8-(1-methoxyethyl)-2-methylimidazo[1,2-b]pyridazin-7-yl)urea], for which the values for the inhibition at 3 µM at recombinant human MALT1 and in the assay on OCI-Ly3 cells were 111% and 97%, respectively. The “T/C (%)” value in assay [1] came to 43.3%.

Regarding `CO[C@@H](C)c1c(NC(=O)Nc2cnc(OC(F)F)c(Cl)c2)cnn2cc(C)nc12` [Example 1, (S)—N-(5-Chloro-6-(difluoromethoxy)pyridin-3-yl)-N′-(8-(1-methoxyethyl)-2-methylimidazo[1,2-b]pyridazin-7-yl)urea], the inhibition at 3 µM came to 104% at recombinant human MALT1 and 96% with OCI-Ly3 cells. For the same compound, the “T/C (%)” value in assay [1] was determined as 13.4%.

Regarding `CO[C@@H](C)c1c(NC(=O)Nc2cnc(-n3nccn3)c(C(F)(F)F)c2)cnc2ccc(Cl)nc12` [Example 2, (S)—N-(6-Chloro-4-(1-methoxyethyl)-1,5-naphthyridin-3-yl)-N′-(6-(2H-1,2,3-triazol-2-yl)-5-(trifluoromethyl)pyridin-3-yl)urea], the values for the inhibition at 3 µM at recombinant human MALT1 and in the assay on OCI-Ly3 cells were 99% and 97%, respectively. Further, in assay [1], the “T/C (%)” value came out at 2.0%.

The record behind these values is patent US11230545B2, “Heterocyclic compound” (Takeda Pharmaceutical Company Limited, priority 2018, dated 2022).
